From PMC9578392, “Safety, Tolerability, and Pharmacokinetics of the Novel Antiviral Agent Ensitrelvir Fumaric Acid, a SARS-CoV-2 3CL Protease Inhibitor, in Healthy Adults” (Antimicrobial Agents and Chemotherapy, 2022)
Where two headings read alike, the source gives them in different places.

Legend:
[1] = Single ascending oral dose pharmacokinetics (part 1, plasma and urine, fasted); assay type: in vivo, human; conditions: for Feu0-144: urine; for AUC(0-inf) / AUC(0-t) / Cmax / MRT / Vd/F / half-life / Tmax / CL renal: human, oral; for AUC(0-inf) / AUC(0-t) / Cmax / MRT / Vd/F / half-life / Tmax: plasma; for Vd/F: read-out: Vz/F; for CL renal: urine and plasma
[2] = Multiple-dose pharmacokinetics (part 2, cohorts F, G, H); assay type: in vivo, human; conditions: for GLS mean ratio (90% CI) of AUC0-τ (white/Japanese) / GLS mean ratio (90% CI) of Cmax (white/Japanese): 375/125 mg, cohort H vs F; for Cmax / AUC / Tmax: human, plasma, oral; for Cmax / AUC: geometric mean (%CV); for AUC: read-out: AUC0-τ; for Tmax: median (min, max)
[3] = cohort/dose A/20 mg, single dose, geometric mean (%CV)
[4] = cohort/dose B/70 mg, single dose, geometric mean (%CV)
[5] = cohort/dose C/250 mg, single dose, geometric mean (%CV)
[6] = cohort/dose D/500 mg, single dose, geometric mean (%CV)
[7] = cohort/dose E/1000 mg, single dose, geometric mean (%CV)
[8] = cohort/dose J/2000 mg, single dose, geometric mean (%CV)
[9] = 375 mg, F/375/125 mg (Japanese), Day 1, fasted
[10] = 375 mg, H/375/125 mg (white), Day 1, fasted
[11] = 750 mg, G/750/250 mg (Japanese), Day 1, fasted
[12] = F/375/125 mg (Japanese), Day 5, fasted
[13] = G/750/250 mg (Japanese), Day 5, fasted
[14] = H/375/125 mg (white), Day 5, fasted

Q: With `Cn1cnc(Cn2c(=O)[nH]/c(=N\c3cc4cn(C)nc4cc3Cl)n(Cc3cc(F)c(F)cc3F)c2=O)n1` [Ensitrelvir, ensitrelvir fumaric acid] as the molecule, how does the CL/F [1, 3] read?
A: 0.219 (24.3) L/h

Q: What about the Feu0-144 [1, 3] of the same molecule?
A: 12.9 (14.6) %

Q: And the CL/F [1, 4]?
A: 0.241 (15.7) L/h

Q: And the Feu0-144 [1, 4]?
A: 14.7 (27.4) %

Q: What about the CL/F [1, 5] of the same molecule?
A: 0.274 (16.2) L/h

Q: And the Feu0-144 [1, 5]?
A: 16.0 (16.6) %

Q: What about the CL/F [1, 6] of the same molecule?
A: 0.252 (16.1) L/h

Q: And the Feu0-144 [1, 6]?
A: 21.8 (15.4) %

Q: And the CL/F [1, 7]?
A: 0.297 (35.5) L/h

Q: And the Feu0-144 [1, 7]?
A: 19.4 (29.5) %

Q: And the CL/F [1, 8]?
A: 0.315 (22.2) L/h

Q: And the AUC(0-inf) [1, 3]?
A: 91.4 µg·h/mL

Q: What about the AUC(0-t) [1, 3] of the same molecule?
A: 82 µg·h/mL

Q: And the Cmax [1, 3]?
A: 1700 ng/mL

Q: And the MRT [1, 3]?
A: 61.8 h

Q: What about the Vd/F [1, 3] of the same molecule?
A: 13.5 L

Q: What about the half-life ([1]; cohort/dose A/20 mg, single dose, geometric mean (%CV), read-out: t1/2,z (converted)) of the same molecule?
A: 42.6 h

Q: What about the Tmax ([1]; cohort/dose A/20 mg, single dose, median (min, max), read-out: Tmax) of the same molecule?
A: 2.5 h

Q: What about the AUC(0-inf) [1, 4] of the same molecule?
A: 291 µg·h/mL

Q: What about the AUC(0-t) [1, 4] of the same molecule?
A: 289 µg·h/mL

Q: And the Cmax [1, 4]?
A: 5200 ng/mL

Q: What about the MRT [1, 4] of the same molecule?
A: 67.3 h

Q: And the Vd/F [1, 4]?
A: 15.9 L

Q: What about the half-life ([1]; cohort/dose B/70 mg, single dose, geometric mean (%CV), read-out: t1/2,z (converted)) of the same molecule?
A: 45.7 h

Q: And the Tmax ([1]; cohort/dose B/70 mg, single dose, median (min, max), read-out: Tmax)?
A: 1.5 h

Q: What about the AUC(0-inf) [1, 5] of the same molecule?
A: 914 µg·h/mL

Q: And the AUC(0-t) [1, 5]?
A: 907 µg·h/mL

Q: What about the Cmax [1, 5] of the same molecule?
A: 15200 ng/mL

Q: What about the MRT [1, 5] of the same molecule?
A: 73.4 h

Q: What about the Vd/F [1, 5] of the same molecule?
A: 17 L

Q: And the half-life ([1]; cohort/dose C/250 mg, single dose, geometric mean (%CV), read-out: t1/2,z (converted))?
A: 43.1 h

Q: And the Tmax ([1]; cohort/dose C/250 mg, single dose, median (min, max), read-out: Tmax)?
A: 2.5 h

Q: What about the AUC(0-inf) [1, 6] of the same molecule?
A: 1990 µg·h/mL

Q: And the AUC(0-t) [1, 6]?
A: 1980 µg·h/mL

Q: And the Cmax [1, 6]?
A: 32600 ng/mL

Q: What about the MRT [1, 6] of the same molecule?
A: 68.2 h

Q: What about the Vd/F [1, 6] of the same molecule?
A: 15.3 L

Q: And the half-life ([1]; cohort/dose D/500 mg, single dose, geometric mean (%CV), read-out: t1/2,z (converted))?
A: 42.2 h

Q: And the Tmax ([1]; cohort/dose D/500 mg, single dose, median (min, max), read-out: Tmax)?
A: 2 h

Q: What about the AUC(0-inf) [1, 7] of the same molecule?
A: 3370 µg·h/mL

Q: And the AUC(0-t) [1, 7]?
A: 3340 µg·h/mL

Q: And the Cmax [1, 7]?
A: 63800 ng/mL

Q: And the MRT [1, 7]?
A: 70.3 h

Q: What about the Vd/F [1, 7] of the same molecule?
A: 20.6 L

Q: And the half-life ([1]; cohort/dose E/1000 mg, single dose, geometric mean (%CV), read-out: t1/2,z (converted))?
A: 48.1 h

Q: What about the Tmax ([1]; cohort/dose E/1000 mg, single dose, median (min, max), read-out: Tmax) of the same molecule?
A: 2.75 h

Q: What about the AUC(0-inf) [1, 8] of the same molecule?
A: 6350 µg·h/mL

Q: And the AUC(0-t) [1, 8]?
A: 6310 µg·h/mL

Q: What about the Cmax [1, 8] of the same molecule?
A: 96900 ng/mL

Q: What about the MRT [1, 8] of the same molecule?
A: 67.4 h

Q: And the Vd/F [1, 8]?
A: 19.6 L

Q: And the half-life ([1]; cohort/dose J/2000 mg, single dose, geometric mean (%CV), read-out: t1/2,z (converted))?
A: 43.1 h

Q: And the Tmax ([1]; cohort/dose J/2000 mg, single dose, median (min, max), read-out: Tmax)?
A: 4 h

Q: What about the half-life ([1]; single dose 20 to 2,000 mg, range across dose groups, read-out: geometric mean terminal elimination half-life (t1/2,z)) of the same molecule?
A: 42.2 to 48.1 h

Q: What about the Tmax ([1]; single dose 20 to 2,000 mg, range across dose groups, read-out: median time to maximum plasma concentration (Tmax)) of the same molecule?
A: 1.5 to 4 h

Q: What about the CL renal [1, 3] of the same molecule?
A: 0.523 mL/min

Q: And the CL renal [1, 4]?
A: 0.668 mL/min

Q: What about the CL renal [1, 5] of the same molecule?
A: 0.845 mL/min

Q: And the CL renal [1, 6]?
A: 1.04 mL/min

Q: What about the CL renal [1, 7] of the same molecule?
A: 1.11 mL/min

Q: And the “GLS mean ratio (90% CI) of AUC0-τ (white/Japanese)” value ([2]; day 1)?
A: 0.7241 (0.6517–0.8046)

Q: And the “GLS mean ratio (90% CI) of Cmax (white/Japanese)” value ([2]; day 1)?
A: 0.7699 (0.6738–0.8796)

Q: And the “GLS mean ratio (90% CI) of AUC0-τ (white/Japanese)” value ([2]; day 5)?
A: 0.8645 (0.7740–0.9656)

Q: And the “GLS mean ratio (90% CI) of Cmax (white/Japanese)” value ([2]; day 5)?
A: 0.8651 (0.7774–0.9627)

Q: What about the “GLS mean ratio (90% CI) of AUC0-τ, cohort G [750/250 mg] versus F [375/125 mg]” value ([2]; day 1) of the same molecule?
A: 1.6893 (1.4492–1.9692)

Q: And the “GLS mean ratio (90% CI) of Cmax, cohort G [750/250 mg] versus F [375/125 mg]” value ([2]; day 1)?
A: 1.5185 (1.2747–1.8089)

Q: And the “GLS mean ratio (90% CI) of AUC0-τ, cohort G [750/250 mg] versus F [375/125 mg]” value ([2]; day 5)?
A: 2.2387 (1.9942–2.5132)

Q: What about the “GLS mean ratio (90% CI) of Cmax, cohort G [750/250 mg] versus F [375/125 mg]” value ([2]; day 5) of the same molecule?
A: 2.1781 (1.9460–2.4379)

Q: What about the Cmax [2, 9] of the same molecule?
A: 29500 ng/mL

Q: What about the AUC [2, 9] of the same molecule?
A: 484 µg·h/mL

Q: What about the Tmax [2, 9] of the same molecule?
A: 1.5 h

Q: What about the Cmax [2, 10] of the same molecule?
A: 22700 ng/mL

Q: And the AUC [2, 10]?
A: 351 µg·h/mL

Q: And the Tmax [2, 10]?
A: 1.75 h

Q: And the Cmax [2, 11]?
A: 44800 ng/mL

Q: And the AUC [2, 11]?
A: 818 µg·h/mL

Q: What about the Tmax [2, 11] of the same molecule?
A: 3 h

Q: What about the Cmax [2, 12] of the same molecule?
A: 30400 ng/mL

Q: What about the AUC [2, 12] of the same molecule?
A: 597 µg·h/mL

Q: And the Tmax [2, 12]?
A: 2 h

Q: And the Cmax [2, 13]?
A: 66300 ng/mL

Q: What about the AUC [2, 13] of the same molecule?
A: 1340 µg·h/mL

Q: And the Tmax [2, 13]?
A: 2.5 h

Q: What about the Cmax [2, 14] of the same molecule?
A: 26300 ng/mL

Q: What about the AUC [2, 14] of the same molecule?
A: 516 µg·h/mL

Q: What about the Tmax [2, 14] of the same molecule?
A: 1.5 h
